{
  "source": "ChEMBL document CHEMBL5500375",
  "about": "“Design, synthesis, and evaluation of N1,N3-dialkyldioxonaphthoimidazoliums as antibacterial agents against methicillin-resistant Staphylococcus aureus” (Eur J Med Chem, 2024)",
  "key": {"Staphylococcus aureus [1]": {"test_system": "Staphylococcus aureus", "assay": "Antibacterial agents against methicillin-resistant Staphylococcus aureus USA300 assessed as absence of growth measured after 18 hrs by micro-dilution method", "type": "functional"}, "Staphylococcus aureus [2]": {"test_system": "Staphylococcus aureus", "assay": "Antibacterial agents against methicillin-sensitive Staphylococcus aureus SA1 assessed as absence of growth measured after 18 hrs by micro-dilution method", "type": "functional"}, "Staphylococcus aureus [3]": {"test_system": "Staphylococcus aureus", "assay": "Antibacterial agents against methicillin-sensitive Staphylococcus aureus Newman assessed as absence of growth measured after 18 hrs by micro-dilution method", "type": "functional"}, "Staphylococcus aureus [4]": {"test_system": "Staphylococcus aureus", "assay": "Antibacterial agents against c5-resistant mutant of methicillin-resistant Staphylococcus aureus SA3 m2 assessed as absence of growth measured after 18 hrs by micro-dilution method", "type": "functional"}, "Staphylococcus aureus [5]": {"test_system": "Staphylococcus aureus", "assay": "Antibacterial agents against c5-resistant mutant of methicillin-resistant Staphylococcus aureus SA3 m3 assessed as absence of growth measured after 18 hrs by micro-dilution method", "type": "functional"}, "Staphylococcus aureus [6]": {"test_system": "Staphylococcus aureus", "assay": "Antibacterial agents against c5-resistant mutant of methicillin-resistant Staphylococcus aureus SA3 m4 assessed as absence of growth measured after 18 hrs by micro-dilution method", "type": "functional"}, "[7]": {"assay": "In vivo toxicity in Drosophila melanogaster strain Oregon R assessed as survival rate at 0.1 to 1 mg/ml measured upto 72 hrs relative to control", "type": "organism-based", "conditions": "Oregon R, at 0.1 to 1 mg/mL, dose 0.1-1 mg/ml"}, "[8]": {"assay": "Cytotoxicity against human HEK293 cells assessed as cell survival measured after 72 hrs incubation by Cell Titer-Glo luminescent assay", "type": "toxicity, cell-based"}, "[9]": {"assay": "Cytotoxicity against human HDFa cells assessed as cell survival measured after 72 hrs incubation by Cell Titer-Glo luminescent assay", "type": "toxicity, cell-based"}, "[10]": {"assay": "Metabolic stability in human liver microsomes assessed as half life at 2 uM preincubated for 5 mins followed by NADPH addition and measured for 35 mins by LC/MS analysis", "type": "ADME, Microsome", "conditions": "preincubation 5 min"}, "[11]": {"assay": "Metabolic stability in human liver microsomes assessed as intrinsic clearance at 2 uM preincubated for 5 mins followed by NADPH addition and measured for 35 mins by LC/MS analysis", "type": "ADME, Microsome", "conditions": "read-out: CLH"}, "Staphylococcus aureus [12]": {"test_system": "Staphylococcus aureus", "assay": "Antibacterial agents against methicillin-sensitive Staphylococcus aureus SA1 assessed as absence of growth at 0.19 ug/ml measured after overnight incubation under anaerobic condition in presence of N-acetylcysteine by micro-dilution method", "type": "functional, organism-based", "conditions": "dose 0.19 µg/ml"}, "Staphylococcus aureus [13]": {"test_system": "Staphylococcus aureus", "assay": "Antibacterial agents against methicillin-sensitive Staphylococcus aureus Newman assessed as absence of growth at 0.19 ug/ml measured after overnight incubation under anaerobic condition in presence of N-acetylcysteine by micro-dilution method", "type": "functional, organism-based", "conditions": "dose 0.19 µg/ml"}, "Staphylococcus aureus [14]": {"test_system": "Staphylococcus aureus", "assay": "Antibacterial agents against c5-resistant mutant of methicillin-resistant Staphylococcus aureus SA3 m2 assessed as absence of growth at 0.19 ug/ml measured after overnight incubation under anaerobic condition in presence of N-acetylcysteine by micro-dilution method", "type": "functional, organism-based", "conditions": "dose 0.19 µg/ml"}, "Staphylococcus aureus [15]": {"test_system": "Staphylococcus aureus", "assay": "Antibacterial agents against c5-resistant mutant of methicillin-resistant Staphylococcus aureus SA3 m4 assessed as absence of growth at 0.19 ug/ml measured after overnight incubation under anaerobic condition in presence of N-acetylcysteine by micro-dilution method", "type": "functional, organism-based", "conditions": "dose 0.19 µg/ml"}, "Staphylococcus aureus [16]": {"test_system": "Staphylococcus aureus", "assay": "Antibacterial agents against c5-resistant mutant of methicillin-resistant Staphylococcus aureus SA3 m5 assessed as absence of growth at 0.19 ug/ml measured after overnight incubation under anaerobic condition in presence of N-acetylcysteine by micro-dilution method", "type": "functional, organism-based", "conditions": "dose 0.19 µg/ml"}, "Staphylococcus aureus [17]": {"test_system": "Staphylococcus aureus", "assay": "Antibacterial agents against c5-resistant mutant of methicillin-resistant Staphylococcus aureus SA3 m6 assessed as absence of growth at 0.19 ug/ml measured after overnight incubation under anaerobic condition in presence of N-acetylcysteine by micro-dilution method", "type": "functional, organism-based", "conditions": "dose 0.19 µg/ml"}, "Bacillus subtilis": {"test_system": "Bacillus subtilis", "assay": "Antibacterial agents against Bacillus subtilis PS380 assessed as absence of growth at 0.19 ug/ml measured after overnight incubation under anaerobic condition in presence of N-acetylcysteine by micro-dilution method", "type": "functional, organism-based", "conditions": "dose 0.19 µg/ml"}, "Staphylococcus aureus [18]": {"test_system": "Staphylococcus aureus", "assay": "Induction of ROS generation in methicillin-resistant Staphylococcus aureus USA300 using hydroxyphenyl fluorescein at 0.19 ug/ml under anaerobic condition", "type": "functional, organism-based", "conditions": "dose 0.19 µg/ml"}, "Staphylococcus aureus [19]": {"test_system": "Staphylococcus aureus", "assay": "Anti-biofilim activity against methicillin-resistant Staphylococcus aureus SA3 assessed decrease in biofilm growth at 1 to 10 times of MIC concentration measured after 12 to 24 hrs incubation", "type": "functional, organism-based", "conditions": "time 12-24 hrs"}, "Staphylococcus aureus [20]": {"test_system": "Staphylococcus aureus", "assay": "Anti-biofilim activity against methicillin-sensitive Staphylococcus aureus SA1 assessed decrease in biofilm growth at 1 to 10 times of MIC concentration measured after 12 to 24 hrs incubation", "type": "functional, organism-based", "conditions": "time 12-24 hrs"}, "Pseudomonas aeruginosa [21]": {"test_system": "Pseudomonas aeruginosa", "assay": "Antibacterial agents against gram negative Pseudomonas aeruginosa PA14 assessed as reduction in colony forming unit at 0.78 ug/ml measured upto 10 hrs by LB agar medium method", "type": "functional, organism-based", "conditions": "dose 0.78 µg/ml"}, "Escherichia coli [22]": {"test_system": "Escherichia coli", "assay": "Antibacterial agents against gram negative Escherichia coli MG1655 assessed as reduction in colony forming unit at 0.78 ug/ml measured upto 10 hrs by LB agar medium method", "type": "functional, organism-based", "conditions": "dose 0.78 µg/ml"}, "Pseudomonas aeruginosa [23]": {"test_system": "Pseudomonas aeruginosa", "assay": "Antibacterial agents against gram negative Pseudomonas aeruginosa PA14 assessed as reduction in colony forming unit at 0.78 ug/ml measured upto 10 hrs in presence of 0.05 ug/ml Polymyxin B by LB agar medium method", "type": "functional, organism-based", "conditions": "dose 0.78 µg/ml"}, "Escherichia coli [24]": {"test_system": "Escherichia coli", "assay": "Antibacterial agents against gram negative Escherichia coli MG1655 assessed as reduction in colony forming unit at 0.78 ug/ml measured upto 10 hrs in presence of 0.05 to 0.2 ug/ml Polymyxin B by LB agar medium method", "type": "functional, organism-based", "conditions": "dose 0.78 µg/ml"}, "Pseudomonas aeruginosa [25]": {"test_system": "Pseudomonas aeruginosa", "assay": "Antibacterial agents against gram negative Pseudomonas aeruginosa PA14 assessed as reduction in colony forming unit at 0.78 ug/ml measured upto 10 hrs in presence of 0.1 ug/ml Polymyxin B by LB agar medium method", "type": "functional, organism-based", "conditions": "dose 0.78 µg/ml"}, "Pseudomonas aeruginosa [26]": {"test_system": "Pseudomonas aeruginosa", "assay": "Antibacterial agents against gram negative Pseudomonas aeruginosa PA14 assessed as reduction in colony forming unit at 0.78 ug/ml measured upto 10 hrs in presence of 0.2 ug/ml Polymyxin B by LB agar medium method", "type": "functional", "conditions": "dose 0.78 µg/ml"}, "Pseudomonas aeruginosa [27]": {"test_system": "Pseudomonas aeruginosa", "assay": "Antibacterial agents against gram negative Pseudomonas aeruginosa PA14 assessed as reduction in colony forming unit at 0.78 ug/ml in presence of 0.1 to 0.2 ug/ml Polymyxin B by LB agar medium method", "type": "functional, organism-based", "conditions": "dose 0.78 µg/ml, time 0-10 hrs, TDE = time-dependent effect"}, "Escherichia coli [28]": {"test_system": "Escherichia coli", "assay": "Antibacterial agents against gram negative Escherichia coli MG1655 assessed as reduction in colony forming unit at 0.78 ug/ml measured upto 10 hrs in presence of 0.2 ug/ml Polymyxin B by LB agar medium method", "type": "functional", "conditions": "dose 0.78 µg/ml"}, "Staphylococcus aureus [29]": {"test_system": "Staphylococcus aureus", "assay": "Bactericidal activity against methicillin-resistant Staphylococcus aureus SA3 assessed as as reduction in colony forming unit at 0.78 ug/ml measured upto 10 hrs by time-kill assay", "type": "functional, organism-based", "conditions": "dose 0.78 µg/ml"}, "Staphylococcus aureus [30]": {"test_system": "Staphylococcus aureus", "assay": "Reduction in virulent activity of methicillin-resistant Staphylococcus aureus SA3 infected in dorsal thorax of Drosophila melanogaster strain Oregon R at 0.2 mg/ml measured upto 72 hrs", "type": "functional, organism-based"}, "Staphylococcus aureus [31]": {"test_system": "Staphylococcus aureus", "assay": "Antibacterial activity against methicillin-resistant Staphylococcus aureus SA3 assessed as resistance by measuring antibacterial activity after 10 passages at 0.39 ug/ml by emergence of bacterial resistance assay", "type": "functional, organism-based", "conditions": "dose 0.39 µg/ml"}, "Staphylococcus aureus [32]": {"test_system": "Staphylococcus aureus", "assay": "Antibacterial activity against methicillin-resistant Staphylococcus aureus SA3 assessed as fold increase in MIC measured after 16 passages to MIC during first passage", "type": "functional"}, "Staphylococcus aureus [33]": {"test_system": "Staphylococcus aureus", "assay": "Antibacterial activity against c5-resistant mutant of methicillin-resistant Staphylococcus aureus SA3 m6 assessed as fold increase in MIC measured after 12 passages to MIC during first passage", "type": "functional"}},
  "note": "Activity calls are given as the source filed them. The rule behind the calls is not given here.",
  "data": [
    {"compound": "CCCCCCCCn1c2c([n+](Cc3ccccc3)c1C)C(=O)c1ccccc1C2=O.[Br-]", "values": [
      {"measurement": "MIC", "setting": "Staphylococcus aureus [1]", "result": 0.39, "unit": "µg/mL"},
      {"measurement": "MIC", "setting": "Staphylococcus aureus [2]", "result": 0.19, "unit": "µg/mL"},
      {"measurement": "MIC", "setting": "Staphylococcus aureus [3]", "result": 0.19, "unit": "µg/mL"},
      {"measurement": "MIC", "setting": "Staphylococcus aureus [4]", "result": 6.25, "unit": "µg/mL"},
      {"measurement": "MIC", "setting": "Staphylococcus aureus [5]", "result": 6.25, "unit": "µg/mL"},
      {"measurement": "MIC", "setting": "Staphylococcus aureus [6]", "result": 6.25, "unit": "µg/mL"},
      {"measurement": "survival at 72 h", "setting": "[7]", "result": 75, "unit": "%"},
      {"measurement": "IC50 at 72 h", "setting": "[8]", "result": 293, "unit": "nM"},
      {"measurement": "IC50 at 72 h", "setting": "[9]", "result": 1060, "unit": "nM"},
      {"measurement": "half-life at 2 µM", "setting": "[10]", "result": 32, "unit": "min"},
      {"measurement": "CLint scaled at 2 µM", "setting": "[11]", "result": 39, "unit": "mL/min/kg"},
      {"measurement": "Activity", "setting": "Staphylococcus aureus [12]", "result": "inactive"},
      {"measurement": "Activity", "setting": "Staphylococcus aureus [13]", "result": "inactive"},
      {"measurement": "Activity", "setting": "Staphylococcus aureus [14]", "result": "inactive"},
      {"measurement": "Activity", "setting": "Staphylococcus aureus [15]", "result": "inactive"},
      {"measurement": "Activity", "setting": "Staphylococcus aureus [16]", "result": "inactive"},
      {"measurement": "Activity", "setting": "Staphylococcus aureus [17]", "result": "inactive"},
      {"measurement": "Activity", "setting": "Bacillus subtilis", "result": "Active"},
      {"measurement": "Activity", "setting": "Staphylococcus aureus [18]", "result": "Active"},
      {"measurement": "Activity", "setting": "Staphylococcus aureus [19]", "result": "Active"},
      {"measurement": "Activity", "setting": "Staphylococcus aureus [20]", "result": "Active"},
      {"measurement": "Activity", "setting": "Pseudomonas aeruginosa [21]", "result": "inactive"},
      {"measurement": "Activity", "setting": "Escherichia coli [22]", "result": "inactive"},
      {"measurement": "Activity", "setting": "Pseudomonas aeruginosa [23]", "result": "inactive"},
      {"measurement": "Activity", "setting": "Escherichia coli [24]", "result": "inactive"},
      {"measurement": "Activity", "setting": "Pseudomonas aeruginosa [25]", "result": "Active"},
      {"measurement": "Activity", "setting": "Pseudomonas aeruginosa [26]", "result": ">4", "unit": "log10CFU/ml"},
      {"measurement": "Activity", "setting": "Pseudomonas aeruginosa [27]", "result": "Tde"},
      {"measurement": "Activity", "setting": "Escherichia coli [28]", "result": 4, "unit": "log10CFU/ml"},
      {"measurement": "Activity", "setting": "Staphylococcus aureus [29]", "result": "Active"},
      {"measurement": "Activity", "setting": "Staphylococcus aureus [30]", "result": "inactive"},
      {"measurement": "Activity", "setting": "Staphylococcus aureus [31]", "result": "Active"},
      {"measurement": "fold change (FC)", "setting": "Staphylococcus aureus [32]", "result": 4},
      {"measurement": "fold change (FC)", "setting": "Staphylococcus aureus [33]", "result": 2}
    ]}
  ]
}
